What follows are compounds tested against AM2 S31 (wild-type serine at position 31 in the M2 protein), influenza virus A/Udorn/72 (Influenza A virus, UniProt P0DOF5) (assay: cell-based). Conditions: 100 uM; Xenopus oocytes; activity range class; read-out: S31 OOcyte Inhibition at 100 uM (%).
AM2 S31 (wild-type serine at position 31 in the M2 protein), influenza virus A/Udorn/72, sequence (P0DOF5 whole entry, looked up): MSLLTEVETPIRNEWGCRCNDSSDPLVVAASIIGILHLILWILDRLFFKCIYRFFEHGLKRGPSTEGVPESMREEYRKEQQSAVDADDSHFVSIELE

| SMILES | inhibition at 100 µM [%] |
| --- | --- |
| Cc1ncc(-c2ccc(CNC34CC5CC(CC(C5)C3)C4)s2)s1 [Example 154a, N-((5-(2-methylthiazol-5-yl)thiophen-2-yl)methyl)adamantan-1-amine] | 0 to 30 |
| Cn1cc(C(F)(F)F)c(-c2ccc(CNC34CC5CC(CC(C5)C3)C4)s2)n1 [Example 155a, N-((5-(1-methyl-4-(trifluoromethyl)-1H-pyrazol-3-yl)thiophen-2-yl)methyl)adamantan-1-amine] | 0 to 30 |
| Cc1nc(-c2ccc(CNC34CC5CC(CC(C5)C3)C4)s2)cs1 [Example 156a, N-((5-(2-methylthiazol-4-yl)thiophen-2-yl)methyl)adamantan-1-amine] | 0 to 30 |
| c1csc(-c2ccc(-c3ccc(CNC45CC6CC(CC(C6)C4)C5)s3)s2)c1 [Example 157a, N-([2,2′:5′,2″-terthiophen]-5-ylmethyl)adamantan-1-amine] | 0 to 30 |
| c1cc(-c2ccc(CNC34CC5CC(CC(C5)C3)C4)s2)[nH]n1 [Example 158a, N-((5-(1H-pyrazol-5-yl)thiophen-2-yl)methyl)adamantan-1-amine] | 0 to 30 |
| Brc1ccc(-c2ccc(CNC34CC5CC(CC(C5)C3)C4)s2)s1 [Example 159a, N-((5′-bromo-[2,2′-bithiophen]-5-yl)methyl)adamantan-1-amine] | 0 to 30 |
| c1coc(-c2nc(CNC34CC5CC(CC(C5)C3)C4)no2)c1 [Example 160a, N-((5-(furan-2-yl)-1,2,4-oxadiazol-3-yl)methyl)adamantan-1-amine] | 0 to 30 |
| c1cn(-c2ccc(CNC34CC5CC(CC(C5)C3)C4)s2)cn1 [Example 161a, N-((5-(1H-imidazol-1-yl)thiophen-2-yl)methyl)adamantan-1-amine] | 0 to 30 |
| c1cc(-c2ccc(CNC34CC5CC(CC(C5)C3)C4)o2)[nH]n1 [Example 162a, N-((5-(1H-pyrazol-5-yl)furan-2-yl)methyl)adamantan-1-amine] | 0 to 30 |
| Fc1ccc(-c2nc(CNC34CC5CC(CC(C5)C3)C4)no2)cc1 [Example 163a] | 0 to 30 |
| c1ccc(-c2cc(CNC34CC5CC(CC(C5)C3)C4)on2)cc1 [Example 164a] | 0 to 30 |
| CCc1nc(CNC23CC4CC(CC(C4)C2)C3)no1 [Example 165a] | 31 to 95 |
| C(NC12CC3CC(CC(C3)C1)C2)c1noc(C2CC2)n1 [Example 166a] | 0 to 30 |
| c1ccc(C2=NOC(CNC34CC5CC(CC(C5)C3)C4)C2)cc1 (stereo not drawn) [Example 167a, N-((3-phenyl-4,5-dihydroisoxazol-5-yl)methyl)adamantan-1-amine] | 0 to 30 |
| c1csc(C2=NOC(CNC34CC5CC(CC(C5)C3)C4)C2)c1 (stereo not drawn) [Example 168a, N-((3-(thiophen-2-yl)-4,5-dihydroisoxazol-5-yl)methyl)adamantan-1-amine] | 0 to 30 |
| O=c1[nH]cc(CNC23CC4CC(CC(C4)C2)C3)c(=O)[nH]1 [Example 169a, 5-((adamantan-1-ylamino)methyl)pyrimidine-2,4(1H,3H)-dione] | 0 to 30 |
| OC1CCC(CNC23CC4CC(CC(C4)C2)C3)CC1 (stereo not drawn) [Example 170a, 4-(Adamantan-1-ylaminomethyl)-cyclohexanol] | 0 to 30 |
| c1scc2[nH]c(CNC34CC5CC(CC(C5)C3)C4)nc12 [Example 171a, Adamantan-1-yl-(1H-thieno[3,4-d]imidazol-2-ylmethyl)-amine] | 0 to 30 |
| Cn1c(CNC23CC4CC(CC(C4)C2)C3)cc2sccc21 [Example 172a, Adamantan-1-yl-(4-methyl-4H-thieno[3,2-b]pyrrol-5-ylmethyl)-amine] | 0 to 30 |
| Clc1cc2cc(CNC34CC5CC(CC(C5)C3)C4)sc2s1 [Example 173a, Adamantan-1-yl-(5-chloro-thieno[2,3-b]thiophen-2-ylmethyl)-amine] | 31 to 95 |

| SMILES | inhibition at 100 µM [%] |
| --- | --- |
| Cc1csc2sc(CNC34CC5CC(CC(C5)C3)C4)c(C)c12 [Example 176a] | 0 to 30 |
| Cc1c(CNC23CC4CC(CC(C4)C2)C3)sc2ccccc12 [Example 177a, Adamantan-1-yl-(3-methyl-benzo[b]thiophen-2-ylmethyl)-amine] | 31 to 95 |
| CC(NC12CC3CC(CC(C3)C1)C2)c1cc2ccccc2s1 (stereo not drawn) [Example 178a] | 31 to 95 |
| Oc1ccc2[nH]c(CNC34CC5CC(CC(C5)C3)C4)cc2c1 [Example 179a] | 0 to 30 |
| Cn1c(CNC23CC4CC(CC(C4)C2)C3)nc2ccccc21 [Example 180a, Adamantan-1-yl-(1-methyl-1H-benzoimidazol-2-ylmethyl)-amine] | 0 to 30 |
| Clc1ccc2[nH]c(CNC34CC5CC(CC(C5)C3)C4)nc2c1 [Example 181a, Adamantan-1-yl-(5-chloro-1H-benzoimidazol-2-ylmethyl)-amine] | 0 to 30 |
| COc1ccc2[nH]c(CNC34CC5CC(CC(C5)C3)C4)cc2c1 [Example 182a] | 0 to 30 |
| Clc1cccc2cc(CNC34CC5CC(CC(C5)C3)C4)sc12 [Example 183a, Adamantan-1-yl-(7-chloro-benzo[b]thiophen-2-ylmethyl)-amine] | 31 to 95 |
| Cc1cccc2nc(CNC34CC5CC(CC(C5)C3)C4)[nH]c12 [Example 184a, Adamantan-1-yl-(7-methyl-1H-benzoimidazol-2-ylmethyl)-amine] | 0 to 30 |
| COc1ccc2cc(CNC34CC5CC(CC(C5)C3)C4)sc2c1 [Example 185a, N-((6-methoxybenzo[b]thiophen-2-yl)methyl)adamantan-1-amine] | 0 to 30 |
| COc1ccc2cc(CNC34CC5CC(CC(C5)C3)C4)[nH]c2c1 [Example 186a, N-((6-methoxy-1H-indol-2-yl)methyl)adamantan-1-amine] | 0 to 30 |
| OC12CC3CC(C1)CC(NCc1cccs1)(C3)C2 [Example 187a, 3-[(Thiophen-2-ylmethyl)-amino]adamantan-1-ol] | 0 to 30 |
| OC12CC3CC(C1)CC(NCc1ccc(Br)s1)(C3)C2 [Example 188a, 3-[(5-Bromo-thiophen-2-ylmethyl)-amino]adamantan-1-ol] | 0 to 30 |
| OC12CC3CC(C1)CC(NCc1ccc(Cl)s1)(C3)C2 [Example 189a, 3-[(5-Chloro-thiophen-2-ylmethyl)-amino]adamantan-1-ol] | 0 to 30 |
| COC(=O)c1ccc(-c2ccc(CNC34CC5CC(CC(O)(C5)C3)C4)cc2)cc1 [Example 190a, 4′-[(3-Hydroxy-adamantan-1-ylamino)-methyl]-biphenyl-4-carboxylic acid methyl ester] | 0 to 30 |
| OC12CC3CC(C1)CC(NCc1ccc(-c4ccccc4)s1)(C3)C2 [Example 191a, 3-[(5-Phenyl-thiophen-2-ylmethyl)-amino]adamantan-1-ol] | 0 to 30 |
| OC12CC3CC(C1)CC(NCc1cc4sccc4s1)(C3)C2 [Example 192a, 3-[(Thieno[3,2-b]thiophen-2-ylmethyl)-amino]-adamantan-1-ol] | 0 to 30 |
| C[Si](C)(C)c1ccc(CNC23CC4CC(CC(O)(C4)C2)C3)cc1 [Example 193a, (1s,3r,5R,7S)-3-((4-(trimethylsilyl)benzyl)amino)adamantan-1-ol] | 0 to 30 |
| OC12CC3CC(C1)CC(NCc1cc(-c4ccccc4)on1)(C3)C2 [Example 194a, (1s,3r,5R,7S)-3-(((5-phenylisoxazol-3-yl)methyl)amino)adamantan-1-ol] | 0 to 30 |
